Data published in patent US12383533B2 (Frost Biologic, Inc., priority 2014, dated 2025).

What was measured:
[1] = test system: A2780 cells; assay: Cell Viability Assay (ATPlite 1step), A2780; type: cell-based; settings: Homo sapiens, 72 hours; for percent inhibition of cell viability at 4 µM: A2780, 4 uM compound, read-out: Cell Viability % inhibition A2780 (4 uM Cpd); for percent inhibition of cell viability at 20 µM: A2780, 20 uM compound, read-out: Cell Viability % inhibition A2780 (20 uM Cpd)
Experimental: (§1) Cell Viability Assay Protocol
(§2) Cells were trypsinized, counted, and re-seeded into a 384-well tissue culture plate at 1000 cells per well in […] media. Cells were incubated at 37° C. in an atmosphere of 5% CO2 for 24 hours. Experimental compounds, initially dissolved in DMSO and diluted further in media were added to the wells and incubated for 72 hours. Cell viability was measured using the ATPlite 1step Luminescence Detection Assay system (Perkin Elmer) as described in the Assay kit instructions.
(§3) Cell Culture Lines and Media: (1) A2780 cells were cultured in RPMI media with 10% FBS and 1% antibiotics. Cells were typically split every 3-5 days at a 1:10 dilution; (2) PC3 cells were cultured in RPMI media with 10% FBS and 1% antibiotics. Cells were typically split every 3-5 days at a 1:4 dilution; (3) MCF-7 cells were grown in K-12F media with 10% FBS and 1% antibiotics. Cells were typically split every 3-5 days at a 1:10 dilution.

[2] = test system: PC3 cells; assay: Cell Viability Assay (ATPlite 1step), PC3; type: cell-based; settings: Homo sapiens, PC-3, 72 hours; for percent inhibition of cell viability at 4 µM: PC3, 4 uM compound, read-out: Cell Viability % inhibition PC3 (4 uM Cpd); for percent inhibition of cell viability at 20 µM: PC3, 20 uM compound, read-out: Cell Viability % inhibition PC3 (20 uM Cpd)
Experimental: as §1, §2, §3

`CC(C)(C)c1cccc(-c2ccc(NC(=O)c3cncnc3)nc2)c1` [Compound 46, N-[5-(3-tert-butylphenyl)pyridin-2-yl]pyrimidine-5-carboxamide] showed a percent inhibition of cell viability at 4 µM [1] of 71.1%, a percent inhibition of cell viability at 20 µM [1] of 71.8% and a percent inhibition of cell viability at 4 µM [2] of 68.5%. For the same compound, the percent inhibition of cell viability at 20 µM [2] was 67.6%.

For `O=C(Nc1ccc(-c2cccc(C3CC3)c2)cn1)c1cccnc1` [Compound 24, N-[5-(3-cyclopropylphenyl)pyridin-2-yl]pyridine-3-carboxamide], the percent inhibition of cell viability at 4 µM [1] was 73.4%, the percent inhibition of cell viability at 20 µM [1] was 72.2% and the percent inhibition of cell viability at 4 µM [2] was 53.1%. The percent inhibition of cell viability at 20 µM [2] was 67.5%.

In the case of `O=C(Nc1ccc(-c2cccc(C3COC3)c2)cn1)c1cccnc1` [Compound 43, N-{5-[3-(oxetan-3-yl)phenyl]pyridin-2-yl}pyridine-3-carboxamide], the percent inhibition of cell viability at 4 µM [1] is reported as 82.6%, the percent inhibition of cell viability at 20 µM [1] is reported as 86.7% and the percent inhibition of cell viability at 4 µM [2] is reported as 75.1%. For the same compound, the percent inhibition of cell viability at 20 µM [2] was 84.5%.

With `O=C(Nc1ccc(-c2ccc(Cl)cc2)cn1)c1cncnc1` [Compound 2, N-[5-(4-chlorophenyl)pyridin-2-yl]pyrimidine-5-carboxamide] the percent inhibition of cell viability at 4 µM [1] was 19.5%, the percent inhibition of cell viability at 20 µM [1] was 65.2% and the percent inhibition of cell viability at 4 µM [2] was 4.9%. It also gave a percent inhibition of cell viability at 20 µM [2] of 17.4%.

For `O=C(Nc1ccc(-c2cccc(NC3CC3)c2)cn1)c1cncnc1` [Compound 30, N-{5-[3-(cyclopropylamino)phenyl]pyridin-2-yl}pyrimidine-5-carboxamide], the percent inhibition of cell viability at 4 µM [1] was 77.4%, the percent inhibition of cell viability at 20 µM [1] was 78.7% and the percent inhibition of cell viability at 4 µM [2] was 63.4%. The percent inhibition of cell viability at 20 µM [2] was 71.9%.

For `NCCNc1ncc(C(=O)Nc2ccc(-c3cccc(C4CC4)c3)cn2)cn1` [Compound 56, 2-[(2-aminoethyl)amino]-N-[5-(3-cyclopropylphenyl)pyridin-2-yl]pyrimidine-5-carboxamide], the percent inhibition of cell viability at 4 µM [1] was 88%, the percent inhibition of cell viability at 20 µM [1] was 97.6% and the percent inhibition of cell viability at 4 µM [2] was 81.4%. The percent inhibition of cell viability at 20 µM [2] was 97.4%.

In the case of `O=C(Nc1ccc(-c2cccc(C3CCC3)c2)cn1)c1cncnc1` [Compound 45, N-[5-(3-cyclobutylphenyl)pyridin-2-yl]pyrimidine-5-carboxamide], the percent inhibition of cell viability at 4 µM [1] is reported as 87.6%, the percent inhibition of cell viability at 20 µM [1] is reported as 86.4% and the percent inhibition of cell viability at 4 µM [2] is reported as 80.8%. For the same compound, the percent inhibition of cell viability at 20 µM [2] was 83.3%.

`O=C(Nc1ccc(-c2cccc(OC3CC3)c2)cn1)c1cccnc1` [Compound 28, N-{5-[3-(cyclopropyloxy)phenyl]pyridin-2-yl}pyridine-3-carboxamide] showed a percent inhibition of cell viability at 4 µM [1] of 77%, a percent inhibition of cell viability at 20 µM [1] of 74.2% and a percent inhibition of cell viability at 4 µM [2] of 58.9%. It also gave a percent inhibition of cell viability at 20 µM [2] of 65.6%.

`CN1CCN(c2cccc(-c3ccc(NC(=O)c4cncnc4)nc3)c2)CC1` [Compound 34, N-{5-[3-(4-methylpiperazin-1-yl)phenyl]pyridin-2-yl}pyrimidine-5-carboxamide] showed a percent inhibition of cell viability at 4 µM [1] of 51.6%, a percent inhibition of cell viability at 20 µM [1] of 49.4% and a percent inhibition of cell viability at 4 µM [2] of 19.8%. For the same compound, the percent inhibition of cell viability at 20 µM [2] was 30.3%.

For `COc1ncc(C(=O)Nc2ccc(-c3cccc(C4CC4)c3)cn2)cn1` [Compound 59, N-[5-(3-cyclopropylphenyl)pyridin-2-yl]-2-methoxypyrimidine-5-carboxamide], the percent inhibition of cell viability at 4 µM [1] was 87.8%, the percent inhibition of cell viability at 20 µM [1] was 90.4% and the percent inhibition of cell viability at 4 µM [2] was 82.6%. The percent inhibition of cell viability at 20 µM [2] was 88.5%.

With `NCCNc1ncc(C(=O)Nc2ccc(-c3cccc(OC4CC4)c3)cn2)cn1` [Compound 58, 2-[(2-aminoethyl)amino]-N-[5-(3-cyclopropyloxyphenyl)pyridin-2-yl]pyrimidine-5-carboxamide] the percent inhibition of cell viability at 4 µM [1] was 86.6%, the percent inhibition of cell viability at 20 µM [1] was 91.1% and the percent inhibition of cell viability at 4 µM [2] was 77.7%. It also gave a percent inhibition of cell viability at 20 µM [2] of 93.6%.

With `O=C(Nc1ccc(-c2ccsc2)cn1)c1cncnc1` [Compound 7, N-[5-(thiophen-3-yl)pyridin-2-yl]pyrimidine-5-carboxamide] the percent inhibition of cell viability at 4 µM [1] was 81.3%, the percent inhibition of cell viability at 20 µM [1] was 90.9% and the percent inhibition of cell viability at 4 µM [2] was 44.1%. It also gave a percent inhibition of cell viability at 20 µM [2] of 41.8%.

For `O=C(Nc1ccc(-c2cccc(OC3CC3)c2)cn1)c1cncnc1` [Compound 26, N-{5-[3-(cyclopropyloxy)phenyl]pyridin-2-yl}pyrimidine-5-carboxamide], the percent inhibition of cell viability at 4 µM [1] was 76%, the percent inhibition of cell viability at 20 µM [1] was 79.9% and the percent inhibition of cell viability at 4 µM [2] was 59.3%. For the same compound, the percent inhibition of cell viability at 20 µM [2] was 67.5%.

`O=C(Nc1ccc(C2CC2)cn1)c1cncnc1` [Compound 6, N-(5-cyclopropylpyridin-2-yl)pyrimidine-5-carboxamide] was tested, and the percent inhibition of cell viability at 4 µM [1] was 75.5%, the percent inhibition of cell viability at 20 µM [1] was 76.4% and the percent inhibition of cell viability at 4 µM [2] was 27%. The percent inhibition of cell viability at 20 µM [2] was 29.9%.

`O=C(Nc1ccc(-c2cccc(NC3CC3)c2)cn1)c1cccnc1` [Compound 32, N-{5-[3-(cyclopropylamino)phenyl]pyridin-2-yl}pyridine-3-carboxamide] gave a percent inhibition of cell viability at 4 µM [1] of 71.9%, a percent inhibition of cell viability at 20 µM [1] of 77% and a percent inhibition of cell viability at 4 µM [2] of 57.3%. For the same compound, the percent inhibition of cell viability at 20 µM [2] was 57.6%.

Work on `O=C(Nc1ccc(-c2cccc(C3CC3)c2)cn1)c1cnccc1F` [Compound 39, N-[5-(3-cyclopropylphenyl)pyridin-2-yl]-4-fluoropyridine-3-carbox-amide] yielded a percent inhibition of cell viability at 4 µM [1] of 55.6%, a percent inhibition of cell viability at 20 µM [1] of 58.7% and a percent inhibition of cell viability at 4 µM [2] of 19.2%. It also gave a percent inhibition of cell viability at 20 µM [2] of 28.7%.

`Cc1ccc(C(=O)Nc2ccc(-c3cccc(N4CCN(C)CC4)c3)cn2)cn1` [Compound 37, N-{5-[3-(4-methylpiperazin-1-yl)phenyl]pyridin-2-yl}-6-methylpyridine-3-carboxamide] showed a percent inhibition of cell viability at 4 µM [1] of 59.2%, a percent inhibition of cell viability at 20 µM [1] of 70.8% and a percent inhibition of cell viability at 4 µM [2] of 35.4%. For the same compound, the percent inhibition of cell viability at 20 µM [2] was 61%.

`O=C(Nc1ccc(-c2ccccc2Cl)cn1)c1cncnc1` [Compound 4, N-[5-(2-chlorophenyl)pyridin-2-yl]pyrimidine-5-carboxamide] gave a percent inhibition of cell viability at 4 µM [1] of 79.7%, a percent inhibition of cell viability at 20 µM [1] of 87.5% and a percent inhibition of cell viability at 4 µM [2] of 36%. It also gave a percent inhibition of cell viability at 20 µM [2] of 44.2%.

Compound `Cc1ncc(C(=O)Nc2ccc(-c3cccc(NC4CCNC4)c3)cn2)cn1` (stereo not shown) [Compound 55, 2-methyl-N-{5-[3-(pyrrolidin-3-ylamino)phenyl]pyridin-2-yl}pyrimidine-5-carboxamide] has a percent inhibition of cell viability at 4 µM [1] of 80.3%, a percent inhibition of cell viability at 20 µM [1] of 87.4% and a percent inhibition of cell viability at 4 µM [2] of 81.1%. It also gave a percent inhibition of cell viability at 20 µM [2] of 82.2%.

`O=C(Nc1ccc(-c2cccc(C3CC3)c2)cn1)c1cnc(O)nc1` [Compound 60, N-[5-(3-cyclopropylphenyl)pyridin-2-yl]-2-hydroxypyrimidine-5-carboxamide] gave a percent inhibition of cell viability at 4 µM [1] of 77.1%, a percent inhibition of cell viability at 20 µM [1] of 83.7% and a percent inhibition of cell viability at 4 µM [2] of 48.8%. For the same compound, the percent inhibition of cell viability at 20 µM [2] was 80.6%.

Compound `Cc1ncc(C(=O)Nc2ccc(-c3cccc(OCCN4CCN(C)CC4)c3)cn2)cn1` [Compound 38, N-{-5-[3-(2-(4-methylpiperazin-1-yl)ethoxy)phenyl]pyridin-2-yl}-2-methylpyrimidine-5-carboxamide] has a percent inhibition of cell viability at 4 µM [1] of 51.7%, a percent inhibition of cell viability at 20 µM [1] of 68.7% and a percent inhibition of cell viability at 4 µM [2] of 39.9%. It also gave a percent inhibition of cell viability at 20 µM [2] of 61.2%.

Compound `Cc1ccc(C(=O)Nc2ccc(-c3cccc(OC4CC4)c3)cn2)cn1` [Compound 29, N-{5-[3-(cyclopropyloxy)phenyl]pyridin-2-yl}-6-methylpyridine-3-carboxamide] has a percent inhibition of cell viability at 4 µM [1] of 74.4%, a percent inhibition of cell viability at 20 µM [1] of 83.1% and a percent inhibition of cell viability at 4 µM [2] of 60.5%. For the same compound, the percent inhibition of cell viability at 20 µM [2] was 69.5%.

With `O=C(Nc1ccc(-c2cccc(C3COC3)c2)cn1)c1cncnc1` [Compound 41, N-{5-[3-(oxetan-3-yl)phenyl]pyridin-2-yl}pyrimidine-5-carboxamide] the percent inhibition of cell viability at 4 µM [1] was 74.7%, the percent inhibition of cell viability at 20 µM [1] was 88.9% and the percent inhibition of cell viability at 4 µM [2] was 74.5%. It also gave a percent inhibition of cell viability at 20 µM [2] of 80.9%.

Compound `Cc1ncc(C(=O)Nc2ccc(-c3cccc(C4COC4)c3)cn2)cn1` [Compound 42, 2-methyl-N-{5-[3-(oxetan-3-yl)phenyl]pyridin-2-yl}pyrimidine-5-carboxamide] has a percent inhibition of cell viability at 4 µM [1] of 85%, a percent inhibition of cell viability at 20 µM [1] of 85.2% and a percent inhibition of cell viability at 4 µM [2] of 80.3%. It also gave a percent inhibition of cell viability at 20 µM [2] of 84.5%.

Work on `COc1ccc(-c2ccc(NC(=O)c3cncnc3)nc2)cc1Cl` [Compound 22, N-[5-(3-chloro-4-methoxyphenyl)pyridin-2-yl]pyrimidine-5-carboxamide] yielded a percent inhibition of cell viability at 4 µM [1] of 69%, a percent inhibition of cell viability at 20 µM [1] of 67.9% and a percent inhibition of cell viability at 4 µM [2] of 20.7%. The percent inhibition of cell viability at 20 µM [2] was 11.5%.
